Earlier results as cited in PMC5559489 (Scientific Reports, 2017).

What was measured:
[1] = system: A(H1N1)pdm2009 clinical isolates with H275Y mutation; conditions: cited from earlier work
[2] = system: A(H1N1)pdm09 isolates containing NA H275Y and I223R; conditions: cited from earlier work

Compound: CCOC(=O)C1=C[C@@H](OC(CC)CC)[C@H](NC(C)=O)[C@@H](N)C1 [oseltamivir, Oseltamivir]
- decrease of sensitivity compared to wild-type [1]: 1466 fold
- decreased susceptibility to oseltamivir [2]: 246 fold
